From patent publication US8053453B2, “Pyrazolone compounds and thrombopoietin receptor activator” (Nissan Chemical Industries, Ltd., priority 2002, dated 2011) come the findings set out here.

SMILES strings stand for the structures. Read-outs that look alike come from different tables or passages of the source.

In the experiment the target is T1, human TPO receptor (Homo sapiens, UniProt P40238).
T1 construct: expressed in transfected cells
T1 sequence (P40238 26-635): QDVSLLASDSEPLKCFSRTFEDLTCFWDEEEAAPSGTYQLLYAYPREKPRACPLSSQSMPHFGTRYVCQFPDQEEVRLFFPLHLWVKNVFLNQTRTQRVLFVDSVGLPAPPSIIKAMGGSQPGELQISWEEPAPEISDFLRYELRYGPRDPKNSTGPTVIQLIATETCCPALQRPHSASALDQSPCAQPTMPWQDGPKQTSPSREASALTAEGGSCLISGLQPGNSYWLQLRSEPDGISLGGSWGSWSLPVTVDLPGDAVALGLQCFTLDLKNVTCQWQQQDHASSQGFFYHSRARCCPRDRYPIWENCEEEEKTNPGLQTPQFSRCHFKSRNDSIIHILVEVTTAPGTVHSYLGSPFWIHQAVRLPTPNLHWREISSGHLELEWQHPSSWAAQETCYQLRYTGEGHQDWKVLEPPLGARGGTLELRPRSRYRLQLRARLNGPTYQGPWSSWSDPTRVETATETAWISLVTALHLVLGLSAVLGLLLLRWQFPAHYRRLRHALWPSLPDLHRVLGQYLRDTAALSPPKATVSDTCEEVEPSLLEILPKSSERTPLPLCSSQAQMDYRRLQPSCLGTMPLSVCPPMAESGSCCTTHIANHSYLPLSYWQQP
In words: Proliferation of TPO-dependent cell line UT7/EPO-mpl, MTT method (Assay Examples 1, 3, 4). The experiment is classed as cell-based. To be noted: UT7/EPO-mpl cells; for EC50: concentration giving 50% of the maximum cell growth observed with the same compound; for Efficacy (%) (maximal growth rate) / Emax: value in the presence of 10 ng/ml TPO taken as 100% standard, method of Assay Example 1; for Emax: read-out: Efficacy (%) (maximal growth rate). The method, then:
The reactivity of Synthetic Example 56, the compound of the present invention, with thrombopoietin (TPO) receptor was assayed using a human leukemic cell line, UT7/EPO-mpl.
UT7/EPO-mpl is a stable transformed cell line obtained by introducing into human leukemic cell line UT7/EPO a vector that induces expression of human TPO receptor (c-mp1) under control of a cytomegaloviral promoter by the method of Takatoku et al. (J. Biol. Chem., 272:7259-7263 (1997)). […] These two cell lines were subcultured in Iscove's modified Dulbecco's medium (IMDM; GIBCO) containing 10% fetal bovine serum (FBS; TRACE SCIENTIFIC) using a CO2 incubator (5% CO2, 37° C.).
The subcultured cells described above were washed twice with phosphate buffered saline (PBS) and suspended in IMDM containing 10% FBS at a cell density of 6×10^4 cells/ml. The cell suspension was transferred to a 96-well tissue culture plate (CORNING) in 100-μl aliquots. Then either TPO (PeproTech EC) or Synthetic Example 56 dissolved in dimethylsulfoxide (DMSO) was diluted 83-fold with IMDM containing 10% FBS and added to the aforementioned cell suspension in 20-μl aliquots. The suspension was incubated in a CO2 incubator (5% CO2, 37° C.) for 4 days. Cell proliferation was assayed according to the method of Mosmann et al. (J. Immunol. Methods, 65:55-63 (1983)). A 10-μl aliquot of 5 mg/ml MTT reagent (SIGMA) was added to each well of the tissue culture plate and the plate was incubated at 37° C. for 4 h. The formazan pigment generated was dissolved by adding 150 μl per well of 0.1 M HCl/isopropanol solution and the absorbance of the resulting pigment solution was measured at 550 nm with a 96-well microplate reader (BIO-RAD, M450).
The following Synthetic Examples were tested according to the method of Assay Example 1 to determine the maximal growth rate (efficacy), expressed by taking the value with human leukemic cell line UT7/EPO-mpl observed in the presence of 10 ng/ml TPO as 100% standard, and the concentration of each compound that yields a growth rate corresponding to 50% of the maximum cell growth observed with the same compound (EC50).
Synthetic Example 56, the compound of the present invention, and four compounds (Reference Synthetic Examples 1 to 4) described in a publication of international patent application (Publication No. WO01/34585, applied by SmithKline Beecham Corp.) were tested according to the method of Assay Example 1.
Background: Tetrazolium assays rely on reduction of a dye to a coloured formazan, in cell work by metabolically active cells.

The mark [1] stands for this setting: read-out: EC50 (ng/ml) (converted).

Take `CC1=NN(c2ccc(C(C)(C)C)cc2)C(=O)C1=C(C)NNC(=O)c1ccc([N+](=O)[O-])cc1` [compound 29]: the “EC50” value turned out to be 0.23 µg/mL and the “Efficacy (%) (maximal growth rate)” value stood at 67%.

Turning to `CC1=NN(c2ccc(C(F)(F)F)cc2)C(=O)C1=C(C)NNC(=O)c1ccccc1O` [compound 30], the “EC50” value turned out to be 0.019 µg/mL and the “Efficacy (%) (maximal growth rate)” value came out at 106%.

On to `CC1=NN(c2ccc(C(F)(F)F)cc2)C(=O)C1=C(C)NNC(=O)c1ccc(O)cc1` [compound 31], for which the “EC50” value turned out to be 0.0052 µg/mL and the “Efficacy (%) (maximal growth rate)” value was found to be 63%.

Turning to `CC1=NN(c2ccc(C(F)(F)F)cc2)C(=O)C1=C(C)NNC(=O)c1cc2ccccc2cc1O` [compound 32], the “EC50” value turned out to be 0.037 µg/mL and the “Efficacy (%) (maximal growth rate)” value is recorded as 90%.

Regarding `CC1=NN(c2ccc(C(F)(F)F)cc2)C(=O)C1=C(C)NNC(=O)c1ccc(O)cc1O` [compound 33], the “EC50” value was 0.0011 µg/mL and the “Efficacy (%) (maximal growth rate)” value is on record as 96%.

On to `CC1=NN(c2ccc(C(F)(F)F)cc2)C(=O)C1=C(C)NNC(=O)c1ccc(O)c(O)c1` [compound 34], for which the “EC50” value was found to be 0.0052 µg/mL and the “Efficacy (%) (maximal growth rate)” value was found to be 99%.

For `CC1=NN(c2ccc(C(F)(F)F)cc2)C(=O)C1=C(C)NNC(=O)c1ccccc1[N+](=O)[O-]` [compound 35], the “EC50” value stood at 0.034 µg/mL and the “Efficacy (%) (maximal growth rate)” value is 99%.

With `CC1=NN(c2ccc(C(F)(F)F)cc2)C(=O)C1=C(C)NNC(=O)c1cccc([N+](=O)[O-])c1` [compound 36], the “EC50” value came to 0.059 µg/mL and the “Efficacy (%) (maximal growth rate)” value came out at 97%.

Turning to `CC1=NN(c2ccc(C(F)(F)F)cc2)C(=O)C1=C(C)NNC(=O)c1ccc([N+](=O)[O-])cc1` [compound 37], the “EC50” value stood at 0.14 µg/mL and the “Efficacy (%) (maximal growth rate)” value is recorded as 63%.

With `CC1=NN(c2ccc(I)cc2)C(=O)C1=C(C)NNC(=O)c1ccccc1O` [compound 38], the “EC50” value was found to be 0.036 µg/mL and the “Efficacy (%) (maximal growth rate)” value turned out to be 93%.

Turning to `CC1=NN(c2ccc(I)cc2)C(=O)C1=C(C)NNC(=O)c1ccc(O)cc1` [compound 39], the “EC50” value worked out at 0.028 µg/mL and the “Efficacy (%) (maximal growth rate)” value is given as 97%.

As for `CC1=NN(c2ccc(I)cc2)C(=O)C1=C(C)NNC(=O)c1cc2ccccc2cc1O` [compound 40], the “EC50” value came out at 0.25 µg/mL and the “Efficacy (%) (maximal growth rate)” value is on record as 37%.

As to `CC1=NN(c2ccc(I)cc2)C(=O)C1=C(C)NNC(=O)c1ccc(O)c(O)c1` [compound 41], the “EC50” value stood at 0.032 µg/mL and the “Efficacy (%) (maximal growth rate)” value turned out to be 115%.

For the compound `CC1=NN(c2ccc(I)cc2)C(=O)C1=C(C)NNC(=O)c1ccccc1[N+](=O)[O-]` [compound 42], the “EC50” value was determined as 0.25 µg/mL and the “Efficacy (%) (maximal growth rate)” value turned out to be 71%.

On to `CC1=NN(c2ccc(I)cc2)C(=O)C1=C(C)NNC(=O)c1cccc([N+](=O)[O-])c1` [compound 43], for which the “EC50” value worked out at 0.083 µg/mL and the “Efficacy (%) (maximal growth rate)” value amounted to 87%.

In the case of `CC1=NN(c2ccc(I)cc2)C(=O)C1=C(C)NNC(=O)c1ccc([N+](=O)[O-])cc1` [compound 44], the “EC50” value was 0.25 µg/mL and the “Efficacy (%) (maximal growth rate)” value is 26%.

In the case of `CC1=NN(c2cccc(C(F)(F)F)c2)C(=O)C1=C(C)NNC(=O)c1ccccc1O` [compound 45], the “EC50” value was 0.03 µg/mL and the “Efficacy (%) (maximal growth rate)” value is given as 74%.

For the compound `CC1=NN(c2cccc(C(F)(F)F)c2)C(=O)C1=C(C)NNC(=O)c1ccc(O)cc1` [compound 46], the “EC50” value came out at 0.015 µg/mL and the “Efficacy (%) (maximal growth rate)” value stood at 82%.

In the case of `CC1=NN(c2cccc(C(F)(F)F)c2)C(=O)C1=C(C)NNC(=O)c1cc2ccccc2cc1O` [compound 47], the “EC50” value stood at 0.19 µg/mL and the “Efficacy (%) (maximal growth rate)” value stood at 48%.

`CC1=NN(c2cccc(C(F)(F)F)c2)C(=O)C1=C(C)NNC(=O)c1ccc(O)cc1O` [compound 48]: the “EC50” value was 0.008 µg/mL and the “Efficacy (%) (maximal growth rate)” value is on record as 62%.

As to `CC1=NN(c2cccc(C(F)(F)F)c2)C(=O)C1=C(C)NNC(=O)c1ccc(O)c(O)c1` [compound 49], the “EC50” value was determined as 0.0091 µg/mL and the “Efficacy (%) (maximal growth rate)” value was determined as 62%.

As to `CC1=NN(c2cccc(C(F)(F)F)c2)C(=O)C1=C(C)NNC(=O)c1ccccc1[N+](=O)[O-]` [compound 50], the “EC50” value is 0.037 µg/mL and the “Efficacy (%) (maximal growth rate)” value was determined as 89%.

On to `CC1=NN(c2cccc(C(F)(F)F)c2)C(=O)C1=C(C)NNC(=O)c1cccc([N+](=O)[O-])c1` [compound 51], for which the “EC50” value amounted to 0.033 µg/mL and the “Efficacy (%) (maximal growth rate)” value is 73%.

Take `CC1=NN(c2cccc(C(F)(F)F)c2)C(=O)C1=C(C)NNC(=O)c1ccc([N+](=O)[O-])cc1` [compound 52]: the Emax was determined as 22%. Further, the EC50 under setting [1] was 0.268 µM.

As to `CC1=NN(c2ccc(C)c(C)c2)C(=O)C1=C(C)NNC(=O)c1ccccc1O` [compound 53], the Emax turned out to be 120%. Also, the EC50 under setting [1] is 0.0317 µM.

Take `CC1=NN(c2ccc(C)c(C)c2)C(=O)C1=C(C)NNC(=O)c1ccc(O)cc1` [compound 54]: the “EC50” value came out at 0.0075 µg/mL and the “Efficacy (%) (maximal growth rate)” value turned out to be 61%.

With `CC1=NN(c2ccc(C)c(C)c2)C(=O)C1=C(C)NNC(=O)c1cc2ccccc2cc1O` [compound 55], the “EC50” value was 0.22 µg/mL and the “Efficacy (%) (maximal growth rate)” value is reported as 53%.

Turning to `CC1=NN(c2ccc(C)c(C)c2)C(=O)C1=C(C)NNC(=O)c1ccc(O)cc1O` [compound 56], the “EC50” value came to 0.0011 µg/mL and the “Efficacy (%) (maximal growth rate)” value came out at 96%.

Consider `CC1=NN(c2ccc(C)c(C)c2)C(=O)C1=C(C)NNC(=O)c1ccc(O)c(O)c1` [compound 57], for which the “EC50” value is 0.0059 µg/mL and the “Efficacy (%) (maximal growth rate)” value turned out to be 97%.

For `CC1=NN(c2ccc(C)c(C)c2)C(=O)C1=C(C)NNC(=O)c1ccccc1[N+](=O)[O-]` [compound 58], the “EC50” value was 0.032 µg/mL and the “Efficacy (%) (maximal growth rate)” value is given as 110%.

On to `CC1=NN(c2ccc(C)c(C)c2)C(=O)C1=C(C)NNC(=O)c1cccc([N+](=O)[O-])c1` [compound 59], for which the Emax amounted to 82%. Moreover, under setting [1], the EC50 is 0.0589 µM.

`CC1=NN(c2ccc(C)c(C)c2)C(=O)C1=C(C)NNC(=O)c1ccc([N+](=O)[O-])cc1` [compound 60]: the “EC50” value turned out to be 0.1 µg/mL and the “Efficacy (%) (maximal growth rate)” value is listed as 62%.

Take `CC1=NN(c2ccc(Cl)c(Cl)c2)C(=O)C1=C(C)NNC(=O)c1ccccc1O` [compound 61]: the “EC50” value amounted to 0.029 µg/mL and the “Efficacy (%) (maximal growth rate)” value came to 91%.

`CC1=NN(c2ccc(Cl)c(Cl)c2)C(=O)C1=C(C)NNC(=O)c1ccc(O)cc1` [compound 62]: the “EC50” value was 0.0064 µg/mL and the “Efficacy (%) (maximal growth rate)” value is 57%.

As to `CC1=NN(c2ccc(Cl)c(Cl)c2)C(=O)C1=C(C)NNC(=O)c1cc2ccccc2cc1O` [compound 63], the “EC50” value worked out at 0.19 µg/mL and the “Efficacy (%) (maximal growth rate)” value turned out to be 21%.

For the compound `CC1=NN(c2ccc(Cl)c(Cl)c2)C(=O)C1=C(C)NNC(=O)c1ccc(O)cc1O` [compound 64], the “EC50” value came out at 0.0077 µg/mL and the “Efficacy (%) (maximal growth rate)” value turned out to be 74%.
